# Laboratory results: article PMC5823406, “Vehicle development, pharmacokinetics and toxicity of the anti-invasive agent 4-fluoro-3’,4’,5’-trimethoxychalcone in rodents” (PLoS ONE, 2018)
# Several values for one entry are separate records, joined by “and”; a condition that tells them apart may be missing. Equal values may be shown once.
# Assays:
# Aqueous solubility = format: physicochemical; conditions: test concentration 200 μM
# Description: (§1) Table 3 In vitro physicochemical, stability and metabolism data. | column: Value
# [1] = LogD, partition coefficient n-octanol/PBS; format: physicochemical; conditions: pH 7.4, 100 μM
# Description: as §1
# [2] = Half-life in PBS, simulated gastric fluid and simulated intestinal fluid; format: physicochemical; conditions: 1 μM
# Description: as §1
# Plasma stability = format: in vitro ADME; conditions: plasma (rat, Sprague-Dawley)
# Description: as §1
# ICR mice = test: Single-dose PO MTD study; format: in vivo; conditions: for Necropsy: gross findings: 72 h post dosing; for Autonomic / Behavioral / Neurologic: first 60 min; for Weigt increase (%): over 72 h, average±SD
# Procedure: Male ICR mice (20–26 g), were obtained from BioLASCO Taiwan. Animals were kept in conventional cages with wood chip bedding. Space allocation for 3–5 animals was 30 x 19 x 13 cm. All animals were healthy at the start of the trial and maintained in a well-controlled temperature (20–24°C) and humidity (30%-70%) environment with 12 h light/dark cycles. Free access to a standard lab diet [MFG (Oriental Yeast Co., Ltd., Japan)] and autoclaved tap water were granted.
# A single PO and IP dose progression test was conducted in which animals were dosed at a minimum of 72- or 24-h intervals, respectively. C16 (vehicle: 10% Solutol HS-15 / 90% PEG 600) was administered by oral gavage at 10 mL/kg to randomly assigned groups of 2 male and 2 female mice, or by IP injection at 5 mL/kg to randomly assigned groups of 5 male mice. Animals received an initial dose of 10 mg/kg. If 50% of the animals survived for 72 h (PO) or 30 min (IP), the dose for the next cohort was increased. If one or more animals died, the dose for the next cohort was decreased. The next dose level was determined by the decision scheme in Fig 2.
# Body weights were recorded before dosing and at the 72- (PO) or 24-h (IP) time point. Gross necropsy was performed in all animals without tissue collection.
# dose was increased or decreased in each subsequent test round until the MTD was discovered. Gross necropsy was
# performed in all animals without tissue collection.
# [3] = Whole blood C16 determination after 7-day dosing via medicated gels; format: in vivo, mouse; conditions: for Blood concentration of C16: Average±SD
# Procedure: On the evening of day 6, blood was collected via the tail vein for the 0, 100 and 300 mg/kg C16 cohorts for determination of the whole blood C16 level. On the morning of day 7, mice of the 0, 100 and 300 mg/kg C16 cohorts were anesthetized by IP injection with 250 mg/kg of Avertin (20 mL/kg, preparation see Section E in S1 File). Blood for C16 determination and hematological and biochemical analysis was collected via cardiac exsanguination (600 μL to 1 mL). Detailed analysis protocols are described below. Afterward, animals were sacrificed by cervical dislocation.
# Blood samples (25 μL) were collected via the tail vein or cardiac puncture (last time point). Blood was pipetted into a tube with 25 μL heparinized water (1 μL of sodium heparin (1000 units/mL) + 24 μL water) within 30 seconds of collection. The sample was pipetted up and down five times, immediately frozen on dry ice, and stored at -60°C to -80°C until analysis.
# E.C. Whole blood C16 levels
# Table AA. Individual blood concentration (ng/mL) for C16 in cohorts on medicated gel .
# Cohort and animal Evening Morning
# BLOQ: below the limit of quantitation (0.5 ng/mL). Samples that were below the limit of quantification were not used in the calculation of
# Table BB. […]
smiles,measurement,setting,value
"COc1cc(C(=O)/C=C/c2ccc(F)cc2)cc(OC)c1OC [C16, 4-fluoro-3’,4’,5’-trimethoxychalcone]",Aqueous solubility,"Aqueous solubility; PBS, pH 7.4",7.9 µM
same,Aqueous solubility,Aqueous solubility; simulated gastric fluid,9.1 µM
same,Aqueous solubility,Aqueous solubility; simulated intestinal fluid,2.4 µM
same,LogD,[1],3.85
same,half-life,"[2]; PBS, pH 7.4",>4 h
same,half-life,[2]; simulated gastric fluid,>1 h
same,half-life,[2]; simulated intestinal fluid,>4 h
same,half-life at 1 μM,Plasma stability,> 2 h
same,tolerated dose,"ICR mice; ICR mice, PO oral gavage, single dose",10 to 300 mg/kg
same,Deaths,"ICR mice; PO 10 mg/kg, F",0/2
same,Necropsy: gross findings,"ICR mice; PO 10 mg/kg, F",none
same,Autonomic,"ICR mice; PO 10 mg/kg, F",none
same,Behavioral,"ICR mice; PO 10 mg/kg, F",none
same,Neurologic,"ICR mice; PO 10 mg/kg, F",none
same,Weigt increase (%),"ICR mice; PO 10 mg/kg, F",2±3%
same,Deaths,"ICR mice; PO 10 mg/kg, M",0/2
same,Necropsy: gross findings,"ICR mice; PO 10 mg/kg, M",none
same,Autonomic,"ICR mice; PO 10 mg/kg, M",none
same,Behavioral,"ICR mice; PO 10 mg/kg, M",none
same,Neurologic,"ICR mice; PO 10 mg/kg, M",none
same,Weigt increase (%),"ICR mice; PO 10 mg/kg, M",25±3%
same,Deaths,"ICR mice; PO 30 mg/kg, F",0/2
same,Necropsy: gross findings,"ICR mice; PO 30 mg/kg, F",none
same,Autonomic,"ICR mice; PO 30 mg/kg, F",none
same,Behavioral,"ICR mice; PO 30 mg/kg, F",none
same,Neurologic,"ICR mice; PO 30 mg/kg, F",none
same,Weigt increase (%),"ICR mice; PO 30 mg/kg, F",6±3%
same,Deaths,"ICR mice; PO 30 mg/kg, M",0/2
same,Necropsy: gross findings,"ICR mice; PO 30 mg/kg, M",none
same,Autonomic,"ICR mice; PO 30 mg/kg, M",none
same,Behavioral,"ICR mice; PO 30 mg/kg, M",none
same,Neurologic,"ICR mice; PO 30 mg/kg, M",none
same,Weigt increase (%),"ICR mice; PO 30 mg/kg, M",18±3%
same,Deaths,"ICR mice; PO 100 mg/kg, F",0/2
same,Necropsy: gross findings,"ICR mice; PO 100 mg/kg, F",none
same,Autonomic,"ICR mice; PO 100 mg/kg, F",none
same,Behavioral,"ICR mice; PO 100 mg/kg, F","Yes: B,C"
same,Neurologic,"ICR mice; PO 100 mg/kg, F",none
same,Weigt increase (%),"ICR mice; PO 100 mg/kg, F",8±1%
same,Deaths,"ICR mice; PO 100 mg/kg, M",0/2
same,Necropsy: gross findings,"ICR mice; PO 100 mg/kg, M",none
same,Autonomic,"ICR mice; PO 100 mg/kg, M",none
same,Behavioral,"ICR mice; PO 100 mg/kg, M","Yes: A,C"
same,Neurologic,"ICR mice; PO 100 mg/kg, M",none
same,Weigt increase (%),"ICR mice; PO 100 mg/kg, M",25±1%
same,Deaths,"ICR mice; PO 300 mg/kg, F",0/2
same,Necropsy: gross findings,"ICR mice; PO 300 mg/kg, F",none
same,Autonomic,"ICR mice; PO 300 mg/kg, F",none
same,Behavioral,"ICR mice; PO 300 mg/kg, F",Yes: A
same,Neurologic,"ICR mice; PO 300 mg/kg, F",none
same,Weigt increase (%),"ICR mice; PO 300 mg/kg, F",7±3%
same,Deaths,"ICR mice; PO 300 mg/kg, M",0/2
same,Necropsy: gross findings,"ICR mice; PO 300 mg/kg, M",none
same,Autonomic,"ICR mice; PO 300 mg/kg, M",none
same,Behavioral,"ICR mice; PO 300 mg/kg, M",Yes: A
same,Neurologic,"ICR mice; PO 300 mg/kg, M",none
same,Weigt increase (%),"ICR mice; PO 300 mg/kg, M",17±0%
same,maximum tolerated single dose,"ICR mice; mouse, oral gavage",> 300 mg/kg
same,Blood concentration of C16,"[3]; 100 mg/kg cohort on medicated gel, Evening (day 6)",8.48 ± 2.28 ng/mL
same,Individual blood concentration of C16,"[3]; 100 mg/kg cohort on medicated gel, Evening, animals 2-1 to 2-4",8.39 ng/mL and 5.39 ng/mL and 9.33 ng/mL and 10.8 ng/mL
same,Blood concentration of C16,"[3]; 100 mg/kg cohort on medicated gel, Morning (day 7)",31.2 ± 26.0 ng/mL
same,Individual blood concentration of C16,"[3]; 100 mg/kg cohort on medicated gel, Morning, animals 2-1 to 2-4",11.5 ng/mL and 6.14 ng/mL and 56.2 ng/mL and 50.8 ng/mL
same,Blood concentration of C16,"[3]; 300 mg/kg cohort on medicated gel, Evening (day 6)",7.63 ± 5.07 ng/mL
same,Individual blood concentration of C16,"[3]; 300 mg/kg cohort on medicated gel, Evening, animals 3-1, 3-3, 3-4",3.51 ng/mL and 13.3 ng/mL and 6.09 ng/mL
same,Blood concentration of C16,"[3]; 300 mg/kg cohort on medicated gel, Morning (day 7)",38.1 ± 27.8 ng/mL
same,Individual blood concentration of C16,"[3]; 300 mg/kg cohort on medicated gel, Morning, animals 3-1 to 3-4",30.1 ng/mL and 21.6 ng/mL and 79.3 ng/mL and 21.3 ng/mL
same,Whole blood C16 concentrations versus projected EC50,"[3]; medicated gel, day 6 evening and day 7 morning",above its projected EC50
